Reference: patent publication US10835542B2, “9-aminomethyl minocycline compounds and use thereof in treating community-acquired bacterial pneumonia (CABP)” (Paratek Pharmaceuticals, Inc., priority 2016, dated 2020)
Several values for one entry are separate records, joined by “and”; a condition that tells them apart may be missing. Equal entries are not always repeated. Where two headings read alike, the source gives them in different places.

Assays:
Type in all cases: in vivo, human
[1] = test system: Chlamydophila pneumoniae; experiment: Clinical success at PTE by baseline pathogen, microITT; conditions: N1 = 28 (Compound 1), 28 (Moxifloxacin)
[2] = test system: Legionella pneumophila; conditions: PTE, microITT; baseline pathogen Legionella pneumophila (culture, serology and/or urinary antigen); N1 = 37 (Compound 1), 37 (Moxifloxacin)
[3] = Food effect on plasma PK of a single 300 mg oral dose, healthy volunteers (4-period crossover)
[4] = test system: Streptococcus pneumoniae; conditions: PTE, microITT
[5] = test system: Escherichia coli; experiment: Clinical success at PTE by baseline pathogen, microITT; conditions: N1 = 6 (Compound 1), 7 (Moxifloxacin)
[6] = test system: Staphylococcus aureus; conditions: PTE, microITT
[7] = test system: Community-Acquired Bacterial Pneumonia (CABP); experiment: Phase 3 CABP study: Investigator's Assessment of Clinical Response at PTE
[8] = CE-PTE, PORT Risk Class II as randomized
[9] = CE-PTE, PORT Risk Class III as randomized
[10] = CE-PTE, PORT Risk Class III/IV as randomized
[11] = CE-PTE, PORT Risk Class IV as randomized
[12] = CE-PTE, actual PORT Risk Class II
[13] = CE-PTE, actual PORT Risk Class III
[14] = CE-PTE, actual PORT Risk Class III/IV
[15] = CE-PTE, actual PORT Risk Class IV
[16] = ITT, PORT Risk Class II as randomized
[17] = ITT, PORT Risk Class III as randomized
[18] = ITT, PORT Risk Class III/IV as randomized
[19] = ITT, PORT Risk Class IV as randomized
[20] = ITT, actual PORT Risk Class III

## CN(C)c1cc(CNCC(C)(C)C)c(O)c2c1C[C@H]1C[C@H]3[C@H](N(C)C)C(O)=C(C(N)=O)C(=O)[C@@]3(O)C(O)=C1C2=O [Compound 1, 9-[(2,2-dimethyl-propylamino)-methyl]-minocycline]
[1]
  Clinical Success n (%): 25 (89.3) n (%)
[2]
  Clinical Success n (%): 35 (94.6) n (%)
[3]; Treatment D
  between-subject variability in systemic exposure (CV) for Cmax and AUC: 42.6-44.4%
[3]; Treatments A, B and C
  between-subject variability in systemic exposure (CV) for Cmax and AUC: 22.4-29.2%
[4]; Streptococcus pneumoniae MDRSP, N1 = 7 (Compound 1), 6 (Moxifloxacin)
  Clinical Success n (%): 7 (100.0) n (%)
[4]; Streptococcus pneumoniae Macrolide Resistant, N1 = 10 (Compound 1), 5 (Moxifloxacin)
  Clinical Success n (%): 10 (100.0) n (%)
[4]; Streptococcus pneumoniae PSSP, N1 = 26 (Compound 1), 22 (Moxifloxacin)
  Clinical Success n (%): 23 (88.5) n (%)
[4]; baseline pathogen Streptococcus pneumoniae, N1 = 43 (Compound 1), 34 (Moxifloxacin)
  Clinical Success n (%): 37 (86.0) n (%)
[5]
  Clinical Success n (%): 4 (66.7) n (%)
[6]; Staphylococcus aureus MRSA, N1 = 0 (Compound 1), 1 (Moxifloxacin)
  Clinical Success n (%): 0 n (%)
[6]; Staphylococcus aureus MSSA, N1 = 11 (Compound 1), 10 (Moxifloxacin)
  Clinical Success n (%): 8 (72.7) n (%)
[6]; baseline pathogen Staphylococcus aureus, N1 = 11 (Compound 1), 11 (Moxifloxacin)
  Clinical Success n (%): 8 (72.7) n (%)
[7]; CE-PTE
  Difference (95% CI) in Overall Clinical Success rate at PTE, Compound 1 minus moxifloxacin: 2.5% and 2.5 (−1.7, 6.8) %
  Overall clinical response at PTE: Clinical Failure: 24 (7.1) n (%)
  Overall clinical response at PTE: Clinical Success: 316 (92.9) n (%)
[7]; [8]
  Clinical Failure at PTE: 3 (6.8) n (%)
  Clinical Success at PTE: 41 (93.2) n (%)
  Difference (95% CI) in clinical success at PTE: 1.5 (−11.2, 13.9)^[4] %
[7]; [9]
  Clinical Failure at PTE: 14 (6.5) n (%)
  Clinical Success at PTE: 202 (93.5) n (%)
  Difference (95% CI) in clinical success at PTE: 2.5 (−2.7, 7.8)^[4] %
[7]; [10]
  Clinical Failure at PTE: 21 (7.1) n (%)
  Clinical Success at PTE: 275 (92.9) n (%)
  Difference (95% CI) in clinical success at PTE: 2.7 (−1.9, 7.3)^[4] %
[7]; [11]
  Clinical Failure at PTE: 7 (8.8) n (%)
  Clinical Success at PTE: 73 (91.3) n (%)
  Difference (95% CI) in clinical success at PTE: 3.0 (−6.8, 12.8)^[4] %
[7]; [12]
  Clinical Failure at PTE: 2 (4.4) n (%)
  Clinical Success at PTE: 43 (95.6) n (%)
  Difference (95% CI) in clinical success at PTE: 5.8 (−6.1, 18.1)^[4] %
[7]; [13]
  Clinical Failure at PTE: 13 (6.4) n (%)
  Clinical Success at PTE: 191 (93.6) n (%)
  Difference (95% CI) in clinical success at PTE: 1.5 (−3.6, 6.9)^[4] %
[7]; [14]
  Clinical Failure at PTE: 22 (7.5) n (%)
  Clinical Success at PTE: 273 (92.5) n (%)
  Difference (95% CI) in clinical success at PTE: 2.0% and 2.0 (−2.6, 6.6)^[4] %
[7]; [15]
  Clinical Failure at PTE: 9 (9.9) n (%)
  Clinical Success at PTE: 82 (90.1) n (%)
  Difference (95% CI) in clinical success at PTE: 2.9 (−6.7, 12.5)^[4] %
[7]; ITT
  Difference (95% CI) in Overall Clinical Success rate at PTE, Compound 1 minus moxifloxacin: 2.5% and 2.5 (−2.4, 7.4) %
  Overall clinical response at PTE: Clinical Failure: 32 (8.3) n (%)
  Overall clinical response at PTE: Clinical Failure or Indeterminate: 48 (12.4) n (%)
  Overall clinical response at PTE: Clinical Success: 338 (87.6) n (%)
  Overall clinical response at PTE: Indeterminate: 16 (4.1) n (%)
[7]; [16]
  Clinical Failure at PTE: 6 (10.7) n (%)
  Clinical Failure or Indeterminate at PTE: 11 (19.6) n (%)
  Clinical Success at PTE: 45 (80.4) n (%)
  Difference (95% CI) in clinical success at PTE: −3.6 (−18.2, 11.0)^[4] %
  Indeterminate at PTE: 5 (8.9) n (%)
[7]; [17]
  Clinical Failure at PTE: 17 (7.1) n (%)
  Clinical Failure or Indeterminate at PTE: 24 (10.0) n (%)
  Clinical Success at PTE: 217 (90.0) n (%)
  Difference (95% CI) in clinical success at PTE: 3.4 (−2.4, 9.4)^[4] %
  Indeterminate at PTE: 7 (2.9) n (%)
[7]; [18]
  Clinical Failure at PTE: 26 (7.9) n (%)
  Clinical Failure or Indeterminate at PTE: 37 (11.2) n (%)
  Clinical Success at PTE: 293 (88.8) n (%)
  Difference (95% CI) in clinical success at PTE: 3.5 (−1.6, 8.7)^[4] %
  Indeterminate at PTE: 11 (3.3) n (%)
[7]; [19]
  Clinical Failure at PTE: 9 (10.1) n (%)
  Clinical Failure or Indeterminate at PTE: 13 (14.6) n (%)
  Clinical Success at PTE: 76 (85.4) n (%)
  Difference (95% CI) in clinical success at PTE: 3.4 (−7.5, 14.0)^[4] %
  Indeterminate at PTE: 4 (4.5) n (%)
[7]; ITT, actual PORT Risk Class II
  Clinical Failure at PTE: 5 (8.8) n (%)
  Clinical Failure or Indeterminate at PTE: 10 (17.5) n (%)
  Clinical Success at PTE: 47 (82.5) n (%)
  Difference (95% CI) in clinical success at PTE: −1.5 (−15.7, 12.8)^[4] %
  Indeterminate at PTE: 5 (8.8) n (%)
[7]; [20]
  Clinical Failure at PTE: 16 (7.0) n (%)
  Clinical Failure or Indeterminate at PTE: 21 (9.3) n (%)
  Clinical Success at PTE: 206 (90.7) n (%)
  Difference (95% CI) in clinical success at PTE: 2.8 (−3.0, 8.7)^[4] %
  Indeterminate at PTE: 5 (2.2) n (%)
[7]; ITT, actual PORT Risk Class III/IV
  Clinical Failure at PTE: 27 (8.2) n (%)
